In ChEMBL document CHEMBL1201862, “PubChem BioAssay data set” (2004):
The source made the active and inactive calls.

Experiments:
HEK293 [1] = assay: NOD1 signaling inhibitors, primary screen, cell-based, luminescence, uHTS (AID 1578); type: functional; conditions: Homo sapiens
HEK293 [2] = assay: cells; type: functional, cell-based; conditions: Homo sapiens
HEK293 [3] = assay: NOD2 signaling inhibitors in MDP-stimulated cells, cell-based, uHTS, luminescence (AID 2001); type: functional; conditions: Homo sapiens
HEK293 [4] = assay: cells; type: functional, cell-based; conditions: Homo sapiens; remark: listed apart in the source
[5] = biological target: Nucleotide-binding oligomerization domain-containing protein 2 (Homo sapiens, UniProt Q9HC29); assay: NOD2 signaling inhibitors, cell-based, luminescence, uHTS, HEK293 (AID 1566); type: functional
Nucleotide-binding oligomerization domain-containing protein 2, sequence (Q9HC29 whole entry, the tested form may be a part): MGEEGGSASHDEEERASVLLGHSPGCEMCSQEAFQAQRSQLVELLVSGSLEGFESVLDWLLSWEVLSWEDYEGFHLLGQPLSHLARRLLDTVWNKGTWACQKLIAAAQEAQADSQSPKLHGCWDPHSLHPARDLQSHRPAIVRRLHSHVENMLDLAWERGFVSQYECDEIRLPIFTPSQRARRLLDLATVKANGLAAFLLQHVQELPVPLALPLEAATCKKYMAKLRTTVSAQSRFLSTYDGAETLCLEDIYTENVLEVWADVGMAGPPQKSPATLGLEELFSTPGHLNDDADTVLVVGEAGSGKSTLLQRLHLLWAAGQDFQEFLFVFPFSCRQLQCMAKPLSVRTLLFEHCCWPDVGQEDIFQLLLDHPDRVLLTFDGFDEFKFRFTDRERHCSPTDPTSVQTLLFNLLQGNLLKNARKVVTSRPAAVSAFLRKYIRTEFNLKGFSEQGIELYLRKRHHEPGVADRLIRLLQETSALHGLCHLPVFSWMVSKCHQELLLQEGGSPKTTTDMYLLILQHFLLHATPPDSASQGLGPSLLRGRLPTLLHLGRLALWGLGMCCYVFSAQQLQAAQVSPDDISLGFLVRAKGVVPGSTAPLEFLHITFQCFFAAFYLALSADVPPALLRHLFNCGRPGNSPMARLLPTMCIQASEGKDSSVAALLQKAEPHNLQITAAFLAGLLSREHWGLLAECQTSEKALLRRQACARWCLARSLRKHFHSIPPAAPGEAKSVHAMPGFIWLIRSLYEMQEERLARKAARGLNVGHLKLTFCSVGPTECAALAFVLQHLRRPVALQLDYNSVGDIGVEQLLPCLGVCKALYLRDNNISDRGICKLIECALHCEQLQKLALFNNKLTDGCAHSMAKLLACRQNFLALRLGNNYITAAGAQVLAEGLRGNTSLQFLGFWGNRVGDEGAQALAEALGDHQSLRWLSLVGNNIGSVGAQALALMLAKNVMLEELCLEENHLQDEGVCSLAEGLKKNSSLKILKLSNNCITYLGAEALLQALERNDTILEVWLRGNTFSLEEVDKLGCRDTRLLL

HEK293 [6] = assay: cells; type: functional, cell-based; conditions: Homo sapiens; remark: listed apart in the source
Cytochrome P450 3A4 = Cytochrome P450 3A4 (Homo sapiens, UniProt P08684); conditions: Potency;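 note: confirmatory qHTS run detecting inhibitors and substrates of CYP3A4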
Cytochrome P450 3A4, sequence (P08684 whole entry): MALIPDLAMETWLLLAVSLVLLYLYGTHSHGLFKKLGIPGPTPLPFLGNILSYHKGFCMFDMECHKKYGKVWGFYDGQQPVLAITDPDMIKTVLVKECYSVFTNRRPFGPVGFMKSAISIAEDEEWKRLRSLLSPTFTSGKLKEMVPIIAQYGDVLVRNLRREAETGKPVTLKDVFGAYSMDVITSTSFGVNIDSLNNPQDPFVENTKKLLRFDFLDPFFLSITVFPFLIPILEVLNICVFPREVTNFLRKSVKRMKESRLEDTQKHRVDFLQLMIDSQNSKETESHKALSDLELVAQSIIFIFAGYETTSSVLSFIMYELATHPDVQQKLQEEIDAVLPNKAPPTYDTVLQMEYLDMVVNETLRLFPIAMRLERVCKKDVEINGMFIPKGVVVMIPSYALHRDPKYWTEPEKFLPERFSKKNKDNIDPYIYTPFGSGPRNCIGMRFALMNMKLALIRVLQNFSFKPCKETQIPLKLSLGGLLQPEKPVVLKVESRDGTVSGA

[7] = biological target: Luciferin 4-monooxygenase (Photinus pyralis, UniProt P08659); assay: Counter Screen for Luciferase-based Assay Positives. [Related pubchem assays: 620, 618, 411 ]
Luciferin 4-monooxygenase, sequence (P08659 whole entry): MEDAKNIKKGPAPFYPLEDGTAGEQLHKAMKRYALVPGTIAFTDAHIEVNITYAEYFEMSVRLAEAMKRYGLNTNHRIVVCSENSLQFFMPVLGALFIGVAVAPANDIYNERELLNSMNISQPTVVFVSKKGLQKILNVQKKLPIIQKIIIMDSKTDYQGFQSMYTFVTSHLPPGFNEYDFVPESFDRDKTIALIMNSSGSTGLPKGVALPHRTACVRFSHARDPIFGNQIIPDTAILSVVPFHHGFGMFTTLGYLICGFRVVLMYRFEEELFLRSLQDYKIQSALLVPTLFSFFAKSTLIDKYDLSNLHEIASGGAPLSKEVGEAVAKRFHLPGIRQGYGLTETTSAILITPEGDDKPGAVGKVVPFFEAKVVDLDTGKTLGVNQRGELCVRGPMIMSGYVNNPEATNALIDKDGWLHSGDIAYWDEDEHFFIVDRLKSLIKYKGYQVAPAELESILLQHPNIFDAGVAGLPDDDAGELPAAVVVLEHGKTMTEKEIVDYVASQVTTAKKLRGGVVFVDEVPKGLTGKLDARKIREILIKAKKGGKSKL

HT-1080 = assay: cytotoxicity in HT1080 fibrosarcoma cells, cell-based, fluorescence readout (AID 620); type: functional; conditions: Homo sapiens
[8] = HEp-2 cell cytotoxicity, dose response, cytotoxicity control for RSV inhibitor project, HTS (AID 2410); type: functional; conditions: human respiratory syncytial virus
[9] = cytotoxicity in HEK-293T cells, dose response, cytotoxicity control for BCR NF-kB inhibitor project, luminescence, B-cell screen hits (AID 489021); type: functional, cell-based;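 note: HEK-293T cells carrying an NF-kB luciferase reporter; cells exposed to compound for about 14 hours before viability readout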
[10] = biological target: T1, Kappa-type opioid receptor (Homo sapiens, UniProt P41145); type: functional
T1 sequence (P41145 whole entry): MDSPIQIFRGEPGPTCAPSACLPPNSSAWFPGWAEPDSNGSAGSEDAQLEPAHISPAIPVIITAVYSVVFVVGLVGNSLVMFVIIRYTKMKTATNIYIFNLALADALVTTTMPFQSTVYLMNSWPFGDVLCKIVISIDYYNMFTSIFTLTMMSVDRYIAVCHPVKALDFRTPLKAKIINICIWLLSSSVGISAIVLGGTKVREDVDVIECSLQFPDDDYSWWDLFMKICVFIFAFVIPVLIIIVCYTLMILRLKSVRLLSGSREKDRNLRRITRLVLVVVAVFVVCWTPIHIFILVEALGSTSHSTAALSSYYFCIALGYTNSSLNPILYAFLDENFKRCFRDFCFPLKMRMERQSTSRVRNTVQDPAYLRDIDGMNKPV

[11] = Luminescence Cell-Based Dose Response HTS to Identify Inhibitors of 5'UTR Stem-Loop Driven Prion Protein mRNA Translation in H4 Neuroglioblastoma Cells. [Related pubchem assays: 1827 (Project Summary), 1813 (Primary HTS)]; type: functional
[12] = biological target: T1, Kappa-type opioid receptor; type: functional; remark: listed apart in the source
[13] = biological target: Sphingosine 1-phosphate receptor 1 (Homo sapiens, UniProt P21453); type: functional;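 note: Tango beta-arrestin reporter U2OS cells stimulated with S1P near its EC80; inhibitor potency meaning antagonism of receptor activation by the natural agonist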
Sphingosine 1-phosphate receptor 1, sequence (P21453 whole entry): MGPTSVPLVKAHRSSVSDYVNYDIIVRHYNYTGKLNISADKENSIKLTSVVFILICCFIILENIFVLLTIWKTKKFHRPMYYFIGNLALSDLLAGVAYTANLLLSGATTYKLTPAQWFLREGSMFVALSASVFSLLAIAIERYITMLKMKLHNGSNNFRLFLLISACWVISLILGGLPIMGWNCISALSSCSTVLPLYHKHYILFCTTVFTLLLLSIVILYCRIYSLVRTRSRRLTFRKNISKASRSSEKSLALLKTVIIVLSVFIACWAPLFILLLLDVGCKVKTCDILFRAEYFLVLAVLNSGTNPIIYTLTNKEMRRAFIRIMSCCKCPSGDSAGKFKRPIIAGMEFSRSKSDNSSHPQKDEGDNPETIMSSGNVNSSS

INS1 = assay: beta cell apoptosis inhibitors, cytokine rescue, dose response, luminescence, retest (AID 449756); type: functional, cell-based; conditions: Rattus norvegicus;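 note: cell death triggered by IL-1 beta plus TNF-alpha plus IFN-gamma mixture; protective hits raise ATP signal compared with cytokine alone wells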
Beta-galactosidase = Beta-galactosidase (Escherichia coli, UniProt Q8VNN2); type: functional
Beta-galactosidase, sequence (Q8VNN2 whole entry): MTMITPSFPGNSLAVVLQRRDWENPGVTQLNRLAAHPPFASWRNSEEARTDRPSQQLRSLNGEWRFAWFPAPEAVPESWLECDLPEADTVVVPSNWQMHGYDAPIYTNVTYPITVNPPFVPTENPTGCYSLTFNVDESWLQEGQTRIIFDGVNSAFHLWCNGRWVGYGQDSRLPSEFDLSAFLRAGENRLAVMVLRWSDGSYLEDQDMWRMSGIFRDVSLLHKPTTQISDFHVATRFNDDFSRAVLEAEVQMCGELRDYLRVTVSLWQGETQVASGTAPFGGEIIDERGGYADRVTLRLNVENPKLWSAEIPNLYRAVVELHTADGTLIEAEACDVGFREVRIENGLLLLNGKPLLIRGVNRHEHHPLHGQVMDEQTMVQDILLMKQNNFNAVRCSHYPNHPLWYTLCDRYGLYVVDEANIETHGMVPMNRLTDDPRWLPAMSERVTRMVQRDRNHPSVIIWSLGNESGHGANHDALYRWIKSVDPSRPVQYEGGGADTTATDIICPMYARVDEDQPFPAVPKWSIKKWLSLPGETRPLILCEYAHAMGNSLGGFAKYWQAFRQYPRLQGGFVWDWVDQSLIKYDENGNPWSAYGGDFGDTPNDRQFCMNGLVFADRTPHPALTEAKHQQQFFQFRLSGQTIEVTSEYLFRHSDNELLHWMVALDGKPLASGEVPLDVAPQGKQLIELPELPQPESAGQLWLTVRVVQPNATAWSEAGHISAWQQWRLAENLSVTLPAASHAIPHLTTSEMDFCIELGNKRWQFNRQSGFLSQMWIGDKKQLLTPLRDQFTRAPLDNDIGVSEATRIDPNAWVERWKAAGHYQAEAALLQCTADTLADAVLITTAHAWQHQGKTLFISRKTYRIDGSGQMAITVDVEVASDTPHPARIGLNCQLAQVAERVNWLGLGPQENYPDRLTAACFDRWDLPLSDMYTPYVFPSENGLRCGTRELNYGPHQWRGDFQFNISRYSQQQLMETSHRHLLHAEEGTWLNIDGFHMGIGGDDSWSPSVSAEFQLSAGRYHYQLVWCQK

Melanocortin receptor 4 = Melanocortin receptor 4 (Homo sapiens, UniProt P32245); assay: MC4R antagonist potency on cAMP, dose response, cell-based, TR-FRET, biased antagonists (AID 602298); type: functional;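 note: antagonist potency against agonist-stimulated cAMP production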
Melanocortin receptor 4, sequence (P32245 whole entry): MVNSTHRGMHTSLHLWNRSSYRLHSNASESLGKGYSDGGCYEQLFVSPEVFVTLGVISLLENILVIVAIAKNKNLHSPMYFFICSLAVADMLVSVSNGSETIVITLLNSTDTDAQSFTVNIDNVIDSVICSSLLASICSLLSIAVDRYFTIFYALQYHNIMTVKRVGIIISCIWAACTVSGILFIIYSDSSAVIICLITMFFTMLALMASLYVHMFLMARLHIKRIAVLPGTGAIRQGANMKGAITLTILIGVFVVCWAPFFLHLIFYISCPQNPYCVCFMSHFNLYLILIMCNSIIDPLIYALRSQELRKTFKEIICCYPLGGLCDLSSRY

[14] = biological target: T2, Sphingosine 1-phosphate receptor 4 (Homo sapiens, UniProt O95977); assay: Fluorescence dose response cell-based high throughput screening assay for antagonists of the Sphingosine 1-Phosphate Receptor 4 (S1P4). [Related pubchem assays: 1524 (Confirmation in triplicates.), 1510 (Primary screen.)]; type: functional
T2 sequence (O95977 whole entry): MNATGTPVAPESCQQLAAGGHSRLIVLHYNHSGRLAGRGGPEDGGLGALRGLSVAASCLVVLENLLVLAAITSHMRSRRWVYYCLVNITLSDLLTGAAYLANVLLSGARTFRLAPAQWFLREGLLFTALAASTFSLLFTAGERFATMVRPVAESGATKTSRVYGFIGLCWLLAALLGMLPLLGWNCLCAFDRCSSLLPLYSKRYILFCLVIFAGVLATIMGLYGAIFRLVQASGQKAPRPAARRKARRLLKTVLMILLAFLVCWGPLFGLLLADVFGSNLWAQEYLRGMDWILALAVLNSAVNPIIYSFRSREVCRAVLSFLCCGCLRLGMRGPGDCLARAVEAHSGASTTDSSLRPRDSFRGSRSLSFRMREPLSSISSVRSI

[15] = inhibitors of firefly luciferase expression or activity, dose response, H4 neuroglioma cells, luminescence (AID 1990); type: functional, cell-based
[16] = nonselective inhibitors of cellular cAMP signaling, dose response, counter-screen for MC4R biased antagonist project, cell-based, TR-FRET cAMP detection (AID 602305); type: functional;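 note: U2OS cells stimulated with forskolin near its EC80 as the cAMP inducer; potency is for inhibition of forskolin-stimulated cAMP signaling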
[17] = inhibitors of SNCA 5'UTR-driven reporter translation, confirmation, H4 neuroglioma cells, luminescence (AID 1988); type: functional, cell-based
[18] = biological target: Dual specificity protein phosphatase 3 (Homo sapiens, UniProt P51452); assay: SAR VHR1 Fluorescent Assay for In Vitro dose response studies Set 2. [Related pubchem assays (depositor defined):AID1654, AID1661, AID1878]; type: functional
Dual specificity protein phosphatase 3, sequence (P51452 whole entry): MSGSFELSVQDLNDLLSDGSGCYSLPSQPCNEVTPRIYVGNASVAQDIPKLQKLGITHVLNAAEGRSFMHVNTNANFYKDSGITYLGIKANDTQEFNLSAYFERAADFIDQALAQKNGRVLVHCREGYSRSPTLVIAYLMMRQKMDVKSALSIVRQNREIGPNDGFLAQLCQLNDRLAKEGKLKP

[19] = biological target: T3, Tyrosine-protein phosphatase non-receptor type 7 (Homo sapiens, UniProt P35236); assay: SAR analysis of chemical inhibitors of HePTP using a Fluorescent assay - Set 2. [Related pubchem assays (depositor defined):AID1059, AID1077, AID1661, AID2085, AID521]; type: functional
T3 sequence (P35236 whole entry): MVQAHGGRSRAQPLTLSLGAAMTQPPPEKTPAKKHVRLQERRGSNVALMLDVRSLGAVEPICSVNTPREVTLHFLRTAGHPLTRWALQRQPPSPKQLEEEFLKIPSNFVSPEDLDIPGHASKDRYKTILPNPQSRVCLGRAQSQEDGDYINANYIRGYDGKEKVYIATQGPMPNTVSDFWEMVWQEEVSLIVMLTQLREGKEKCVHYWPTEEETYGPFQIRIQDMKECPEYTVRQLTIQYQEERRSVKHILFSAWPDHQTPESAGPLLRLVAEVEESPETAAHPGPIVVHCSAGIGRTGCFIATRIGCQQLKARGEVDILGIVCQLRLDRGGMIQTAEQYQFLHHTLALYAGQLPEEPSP

CCOc1ccccc1C(=O)N1CCN(C(c2ccccc2)c2ccccc2)CC1
EC50 (HEK293 [1]): 14.3 µM (active) | IC50 (HEK293 [2]): > 20 µM (inactive) | IC50 (HEK293 [3]): > 20 µM (inactive) | IC50 (HEK293 [4]): 15.7 µM (active) | EC50 [5]: 13 µM (active) | IC50 (HEK293 [6]): > 20 µM (inactive)

CCOC(=O)CC(SP(=O)(OC)OC)C(=O)OCC (stereo not drawn)
AC50 (Cytochrome P450 3A4): 25.1 µM (inconclusive)

CC(=O)Nc1ccc(OC(=O)N2CCCCC2)cc1
EC50 [7]: 3.67 µM (active) | EC50 (HT-1080): > 50 µM (not active)

Cn1cnnc1Sc1cc(N2CCN(S(=O)(=O)c3ccc(Cl)c(Cl)c3)CC2)ccc1[N+](=O)[O-]
IC50 (cells): 10.7 µM (active) | CC50 [8]: > 50 µM (active)

CCC(=O)N1c2ccccc2[C@@H](N(C(C)=O)c2ccccc2)C[C@H]1C
IC50 [9]: > 80 µM (inactive)

COc1ccc(C(=O)/C(=C\c2ccco2)N2C=CC=CC2=C(C#N)C#N)cc1
IC50 [10]: 5.93 µM (active) | EC50 [11]: 12.3 µM (active) | IC50 [12]: 18 µM | IC50 [13]: 9.37 µM (active) | AC50 (INS1): 5.51 µM (active) | EC50 (Beta-galactosidase): > 31.5 µM (inactive) | IC50 (Melanocortin receptor 4): > 64.6 µM (inactive) | IC50 [14]: 2.01 µM (active) | EC50 [15]: 7.21 µM (inconclusive) | IC50 [16]: > 64.6 µM (inactive) | EC50 [17]: 0.141 µM (active)

NS(=O)(=O)c1ccc(NC(=S)N2CCN(Cc3ccc(Cl)c(Cl)c3)CC2)cc1
IC50 [18]: > 100 µM (inactive) | IC50 [19]: 48.4 µM (active) | EC50 [11]: > 120 µM (not active) | EC50 [15]: 34.5 µM (active) | EC50 [17]: > 120 µM (not active)
